Columns and labels:
[1] = system: Brassica napus; experiment: In vivo analyses Part A: drought stress, spray application, visual damage scoring, Brassica napus
Method: (§1) Seeds of monocotyledonous and dicotyledonous crop plants were sown in sandy loam in wood-fiber or plastic pots, covered with soil or sand and cultivated in a greenhouse under good growth conditions. The trial plants were treated at the early leaf stage (BBCH10-BBCH13). To assure uniform water supply before commencement of stress, the potted plants were supplied with water by dam irrigation prior to substance application. The inventive compounds formulated in the form of wettable powders (WP) were sprayed onto the green parts of the plants as an aqueous suspension at an equivalent water application rate of 600 l/ha with addition of 0.2% wetting agent (e.g. agrotin). Substance application was followed immediately by stress treatment of the plants. For this purpose, the wood-fiber pots were transferred in plastic inserts in order to prevent them from subsequently drying out too quickly. Drought stress was induced by gradual drying out under the following conditions: “Day”: 14 hours with illumination at ˜26-30° C. “Night”: 10 hours without illumination at ˜18-20° C. The duration of the respective stress phases was guided mainly by the condition of the stressed control plants. It was ended (by re-irrigating and transfer to a greenhouse with good growth conditions) as soon as irreversible damage was observed on the stressed control plants. The end of the stress phase was followed by an about 4-7-day recovery phase, during which the plants were once again kept under good growth conditions in a greenhouse. The duration of the recovery phase was guided mainly by when the trial plants had attained a state which enabled visual scoring of potential effects, and is therefore variable. Once this juncture was reached, the intensities of damage were scored visually in comparison to untreated, unstressed controls of the same age. The damage intensity was at first assessed in per cent. These values were then used to calculate the efficacy of the test compounds by the following formula: [formula] EF: Efficacy DIs: Damage intensity of the stressed control plants DIt: Damage intensity of the stressed plants treated with test compound The values reported in tables A-1 to A-3 below are mean values from at least one trial with at least two repeats, showing the effects of selected compounds of the general formula (I) under drought stress on various crop plants.

[2] = system: Zea mays; experiment: In vivo analyses Part A: drought stress, spray application, visual damage scoring, Zea mays
Method: as §1

[3] = system: Triticum aestivum; experiment: In vivo analyses Part A: drought stress, spray application, visual damage scoring, Triticum aestivum
Method: as §1

[4] = system: Brassica napus; experiment: In vivo analyses Part B: drought stress, spray application, appearance vs stressed control in categories, Brassica napus; set-up: key: 0: no positive effect; +: slight positive effect; ++: clear positive effect; +++: strong positive effect
Method: (§2) Seeds of monocotyledonous and dicotyledonous crop plants were sown in sandy loam in plastic pots, covered with soil or sand and cultivated in a greenhouse under good growth conditions. The test plants are treated at the early leaf stage (BBCH10-BBCH13). To assure uniform water supply before commencement of stress, the potted plants were supplied with water by dam irrigation prior to substance application. The inventive compounds were first formulated as wettable powders (WP) or dissolved in a solvent mixture. The further dilution was effected with water supplemented with 0.2% wetting agent (e.g. agrotin). The finished spray liquor was sprayed onto the green parts of the plant at an equivalent water application rate of 600 l/ha. Substance application was followed immediately by stress treatment of the plants. Drought stress was induced by gradual drying out under the following conditions: “Day”: 14 hours with illumination at ˜26-30° C. “Night”: 10 hours without illumination at ˜18-20° C. The duration of the respective stress phases was guided mainly by the condition of the stressed control plants. It was ended (by re-irrigating and transfer to a greenhouse with good growth conditions) as soon as irreversible damage was observed on the stressed control plants. The end of the stress phase was followed by an about 4-7-day recovery phase, during which the plants were once again kept under good growth conditions in a greenhouse. The duration of the recovery phase was guided mainly by when the trial plants had attained a state which enabled visual scoring of potential effects, and was therefore variable. Once this juncture had been reached, the appearance of the plants treated with test substances was recorded in comparison to the stressed control plants by the following categories: • 0 no positive effect • + slight positive effect • ++ clear positive effect • +++ strong positive effect In order to rule out any influence on the effects observed by any fungicidal or insecticidal action of the test compounds, it was additionally ensured that the tests proceeded without fungal infection or insect infestation. The values reported in tables B-1 and B-2 below are mean values of the results from at least three repeats. Effects of selected compounds of the general formula (I) under drought stress according to the following tables B-1 and B-2: […]

[5] = system: Triticum aestivum; experiment: In vivo analyses Part B: drought stress, spray application, appearance vs stressed control in categories, Triticum aestivum; set-up: key: 0: no positive effect; +: slight positive effect; ++: clear positive effect; +++: strong positive effect
Method: as §2

## CN(C)N(Cc1ncc(Cl)cc1Cl)C(=O)c1cccc(Cl)c1 [A28-35]
[1]; dosage 250 g/ha
  EF [%] (BRSNS): >5%
[2]; dosage 250 g/ha
  EF [%] (ZEAMX): >5%

## COc1ccccc1C(=O)N(Cc1ccccn1)N(C)C [A8-21]
[1]; dosage 25 g/ha
  EF [%] (BRSNS): >5%
[2]; dosage 250 g/ha
  EF [%] (ZEAMX): >5%
[3]; dosage 250 g/ha
  EF [%] (TRZAS): >5%

## CN(C)N(CCc1ccc(Cl)cc1Cl)C(=O)c1ccc(Cl)cc1 [A9-615]
[2]; dosage 250 g/ha
  EF [%] (ZEAMX): >5%

## COc1c(C)cnc(CN(C(=O)c2ccc(Cl)cc2Cl)N(C)C)c1C [A12-37]
[1]; dosage 25 g/ha
  EF [%] (BRSNS): >5%
[3]; dosage 25 g/ha
  EF [%] (TRZAS): >5%

## Cc1ccc(CCN(C(=O)c2ccc(Cl)cc2)N(C)C)cc1C [A9-663]
[2]; dosage 250 g/ha
  EF [%] (ZEAMX): >5%

## CN(C)N(Cc1ccc2ccccc2n1)C(=O)c1cccc(C#N)c1 [A34-122]
[2]; dosage 25 g/ha
  EF [%] (ZEAMX): >5%

## CN(C)N(CCc1ccccc1Cl)C(=O)c1ccccc1C(F)(F)F [A1-612]
[2]; dosage 250 g/ha
  EF [%] (ZEAMX): >5%
[4]; dosage 25 g/ha
  Effect (BRSNS): +
[5]; dosage 25 g/ha
  Effect (TRZAS): +

## CN(C)N(Cc1ncc(C(F)(F)F)cc1Cl)C(=O)c1ccncc1C(F)(F)F [C2-36]
[1]; dosage 25 g/ha
  EF [%] (BRSNS): >5%

## CN(C)N(Cc1ncc(C(F)(F)F)cc1Cl)C(=O)c1ccc(F)cc1C(F)(F)F [A14-36]
[2]; dosage 250 g/ha
  EF [%] (ZEAMX): >5%

## CN(C)N(Cc1ccccc1Cl)C(=O)c1cc(Cl)ccc1Cl [A7-1]
[1]; dosage 25 g/ha
  EF [%] (BRSNS): >5%

## CN(C)N(Cc1ccccc1F)C(=O)c1cc(Cl)ccc1Cl [A7-11]
[1]; dosage 25 g/ha
  EF [%] (BRSNS): >5%

## CN(C)N(Cc1cccc(C#N)c1)C(=O)c1ccncc1 [C1-62]
[1]; dosage 2.5 g/ha
  EF [%] (BRSNS): >5%

## CN(C)N(Cc1ccc2ccccc2n1)C(=O)c1cccc([N+](=O)[O-])c1 [A33-122]
[1]; dosage 250 g/ha
  EF [%] (BRSNS): >5%
[2]; dosage 25 g/ha
  EF [%] (ZEAMX): >5%

## CN(C)N(Cc1c(Cl)cccc1Cl)C(=O)c1ccccc1Cl [A10-7]
[1]; dosage 250 g/ha
  EF [%] (BRSNS): >5%

## CN(C)N(Cc1ccc2ccccc2n1)C(=O)c1cnccc1C(F)(F)F [B1-122]
[1]; dosage 25 g/ha
  EF [%] (BRSNS): >5%
[2]; dosage 250 g/ha
  EF [%] (ZEAMX): >5%

## CN(C)N(Cc1ccc(Br)cc1F)C(=O)c1ccccc1C(F)(F)F [A1-44]
[2]; dosage 250 g/ha
  EF [%] (ZEAMX): >5%

## CN(C)N(Cc1ccccc1C#N)C(=O)c1ccncc1 [C1-61]
[1]; dosage 250 g/ha
  EF [%] (BRSNS): >5%

## CN(C)N(Cc1ccccc1C#N)C(=O)c1ccccc1Cl [A10-61]
[1]; dosage 25 g/ha
  EF [%] (BRSNS): >5%

## COc1ccccc1C(=O)N(Cc1ccccc1Cl)N(C)C [A8-1]
[1]; dosage 2.5 g/ha
  EF [%] (BRSNS): >5%

## CN(C)N(Cc1cc(C(F)(F)F)ccc1Cl)C(=O)c1ccc(Cl)cc1Cl [A12-86]
[1]; dosage 25 g/ha
  EF [%] (BRSNS): >5%

## CN(C)N(Cc1ccc(Cl)nc1)C(=O)c1ccc(C(F)F)nc1 [B6-94]
[4]; dosage 250 g/ha
  Effect (BRSNS): +
[5]; dosage 250 g/ha
  Effect (TRZAS): +

## CN(C)N(Cc1cccc([N+](=O)[O-])c1)C(=O)c1ccncc1 [C1-111]
[1]; dosage 2.5 g/ha
  EF [%] (BRSNS): >5%
[2]; dosage 25 g/ha
  EF [%] (ZEAMX): >5%
[3]; dosage 25 g/ha
  EF [%] (TRZAS): >5%

## CN(C)N(CCc1ccc(C(C)(C)C)cc1)C(=O)c1cc(Cl)ccc1Cl [A7-639]
[1]; dosage 25 g/ha
  EF [%] (BRSNS): >5%
[2]; dosage 250 g/ha
  EF [%] (ZEAMX): >5%

## CN(C)N(Cc1ccccn1)C(=O)c1ccccc1C(F)(F)F [A1-21]
[1]; dosage 25 g/ha
  EF [%] (BRSNS): >5%

## CN(C)N(Cc1ccc(Cl)nc1)C(=O)c1ccc(Cl)cc1Cl [A12-94]
[4]; dosage 25 g/ha
  Effect (BRSNS): +
[5]; dosage 250 g/ha
  Effect (TRZAS): +

## CN(C)N(Cc1ccccc1C#N)C(=O)c1ccc(C(F)(F)F)nc1 [B5-61]
[4]; dosage 25 g/ha
  Effect (BRSNS): +
[5]; dosage 25 g/ha
  Effect (TRZAS): +

## CN(C)N(Cc1cccnc1C#N)C(=O)c1ccccc1C(F)(F)F [A1-679]
[4]; dosage 25 g/ha
  Effect (BRSNS): +
[5]; dosage 250 g/ha
  Effect (TRZAS): +

## CN(C)N(Cc1ccccc1Cl)C(=O)c1ccc(C#N)cc1C(F)(F)F [A48-1]
[4]; dosage 25 g/ha
  Effect (BRSNS): +++
[5]; dosage 250 g/ha
  Effect (TRZAS): +

## Cc1c(OCC(F)(F)F)ccnc1CN(C(=O)c1ccc(Cl)cc1)N(C)C [A9-144]
[2]; dosage 25 g/ha
  EF [%] (ZEAMX): >5%

Reference: patent US20180206495A1, “SUBSTITUTED ARYL AND HETEROARYL CARBOXYLIC ACID HYDRAZIDES OR SALTS THEREOF AND USE THEREOF TO INCREASE STRESS TOLERANCE IN PLANTS” (BAYER CROPSCIENCE AKTIENGESELLSCHAFT, priority 2015, published 2018)
